Reference: patent US7803757B2, “Peptides based on the sequence of human lactoferrin and their use” (PharmaSurgics in Sweden AB, priority 1998, dated 2010)
Read-outs that look alike come from different tables or passages of the source. Bridge positions count the residues as written; N and C are the ends. Ends that are not written are not given here. * marks the point of attachment. Acm = CC(=O)NC*

What was measured:
Format in all cases: cell-based
C. albicans (ATCC64549) = tested on: C. albicans (ATCC64549)
Experimental: (§1) In the examples, the minimal microbicidal concentrations (MMC) and minimal inhibitory concentrations (MIC) were determined as follows, unless otherwise specified in the examples. Bacterial or fungal strains were cultured in BHI medium over night at 37° C. A volume of the culture was transferred to a new tube with BHI and incubated for two more hours. Thereafter the cells were spun down and the pellet was suspended in BHI medium diluted 1/100 (1% BHI). The concentration of bacterial or fungal cells was spectrophotometrically determined at 650 nm. The microbial concentrations were also determined by viable counts. Peptides serially diluted in 1% BHI by twofold or tenfold steps were added in triplicate to the wells of a microtiterplate (200 μl per well). The bacterial or fungal cell solutions were added in 10 μl volumes to give a final concentration of approximately 1-5×10^5 cells per ml in the well. The microplate was incubated at 37° C. in a humid chamber for two hours. Thereafter 5 μl was taken from each well and added as a drop onto a blood agar plate and incubated over night at 37° C. The microplate was incubated for another 20 hours at 37° C. and thereafter analysed spectrophotometrically at 650 nm in a microplate reader (Emax, Molecular Devices, USA). The concentration of peptide causing a 99% reduction of the inoculum after 2 hours of incubation was defined as the MMC99%. The MIC value was defined as the concentration giving no increase in the absorbance value above the background level after 20 hours of incubation.
(§2) C. albicans (ATCC64549) and E. coli O6, respectively, were incubated with the different peptides. The experiments were performed with 1, 10, 25 and 100 μg/ml of peptide.

E. coli O6 = tested on: E. coli O6
Experimental: as §1, §2

[1] = tested on: C. albicans yeast cells (ATCC64549); experiment: killing and growth inhibition of C. albicans at pH 4.5 (Example 11); parameters: key to C. albicans inhibition (OD650): + = no increase in OD650 is seen; − = OD650 continues to increase; conditions: pH 4.5, 1% BHI, 25 μg/ml of the peptide; for C. albicans inhibition (OD650): OD650 after an additional 18 hours; for C. albicans killing: 99% / C. albicans killing: 100%: 2 hours
Experimental: C. albicans yeast cells (ATCC64549) were incubated for 2 hours at pH 4.5 in BHI medium diluted to 1% of the original concentration containing 25 µg/ml of the peptide. Thereafter the fungal solutions were cultured on blood agar plates. OD650 was measured after incubation during an additional 18 hours. The fungicidal effect of the peptides on C. albicans was determined as the ability of the peptide to kill 100% and 99%, respectively, of the fungus, while the growth inhibitory effect was determined by measuring the OD650. An inhibitory effect existed when no increase in OD650 was recorded.

E. faecalis = experiment: killing of bacteria at fixed peptide concentration, E. faecalis (Example 12); conditions: peptide 25 μg/ml
Experimental: (§3) In this example, the peptides according to the invention were used to study the effect on the killing of different bacteria.
(§4) The peptides were used at a concentration of 25 μg/ml.

S. epidermis = experiment: killing of bacteria at fixed peptide concentration, S. epidermis (Example 12); conditions: peptide 25 μg/ml
Experimental: as §3, §4

S. aureus = experiment: killing of bacteria at fixed peptide concentration, S. aureus (Example 12); conditions: peptide 25 μg/ml
Experimental: as §3, §4

K. pneumoniae = experiment: killing of bacteria at fixed peptide concentration, K. pneumoniae (Example 12); conditions: peptide 25 μg/ml
Experimental: as §3, §4

P. aeruginosa = experiment: killing of bacteria at fixed peptide concentration, P. aeruginosa (Example 12); conditions: peptide 25 μg/ml
Experimental: as §3, §4

[2] = tested on: Candida albicans ATCC 64549; experiment: fungicidal and growth inhibitory activity, Candida albicans ATCC 64549 (Example 8); conditions: for Concentration of agent for 100% killing: C. albicans ATCC 64549 1·10^5/ml, 2 hours 37° C., diluted BHI; for Concentration of agent for inhibition of growth: C. albicans ATCC 64549, spectrophotometrically after 20 hours
Experimental: Candida albicans ATCC 64549 (1·10^5/ml) was incubated in the presence of the peptides during 2 hours at 37° C. in diluted growth medium (BHI, twofold serial dilutions starting with 50 μg/ml). The fungicidal activity was measured by culturing 5 μl from each incubation well on Saboroud agar plates.
The inhibition of growth was measured spectrophotometrically after 20 hours of incubation.

E. coli O14 = experiment: bactericidal and growth inhibitory activity, E. coli O14 (Example 9); conditions: for Concentration of agent for 100% killing: E. coli O14, 2 hours; for Concentration of agent for inhibition of growth: E. coli O14, spectrophotometrically after 20 hours
Experimental: E. coli O14 was incubated as described above in the presence of the peptides during 2 hours. The bactericidal activity was measured in the same way as described above.
The inhibition of growth was measured spectrophotometrically after incubation during 20 hours.

E. coli O6K5 = experiment: microbicidal activity MMC99%, E. coli O6K5 (Example 28); conditions: E. coli O6K5 (Table 24)
Experimental: as §1
(§5) In this example the microbicidal activity of eight of the peptides according to the invention was studied, and tested against E. coli O6K5 and C. albicans.
(§6) The concentration of each peptide needed to kill 99% of the microorganisms (MMC99%) was determined.

C. albicans = experiment: microbicidal activity MMC99%, C. albicans (Example 28); conditions: C. albicans (Table 24)
Experimental: as §1, §5, §6

[3] = C. albicans, tested at 1, 10, 25 and 100 μg/ml of peptide
[4] = E. coli O6, tested at 1, 10, 25 and 100 μg/ml of peptide

| Substance | MIC (C. albicans (ATCC64549); ATCC64549) [µg/mL] | MMC99% (C. albicans (ATCC64549); [3]) [µg/mL] | MMC99% (E. coli O6; [4]) [µg/mL] | MIC (E. coli O6; O6) [µg/mL] | C. albicans inhibition (OD650) [1] | C. albicans killing: 99% [1] | C. albicans killing: 100% [1] | killing of bacteria: E. faecalis (E. faecalis) | killing of bacteria: S. epidermis (S. epidermis) | killing of bacteria: S. aureus (S. aureus) | killing of bacteria: K. pneumoniae (K. pneumoniae) | killing of bacteria: P. aeruginosa (P. aeruginosa) | Concentration of agent for 100% killing [2] [µg/mL] | Concentration of agent for inhibition of growth [2] [µg/mL] | Concentration of agent for 100% killing (E. coli O14) [µg/mL] | Concentration of agent for inhibition of growth (E. coli O14) [µg/mL] | MIC (C. albicans (ATCC64549); [3]) [µg/mL] | MIC (E. coli O6; [4]) [µg/mL] | MMC99% (E. coli O6K5) | MMC99% (C. albicans) |
| --- | --- | --- | --- | --- | --- | --- | --- | --- | --- | --- | --- | --- | --- | --- | --- | --- | --- | --- | --- | --- |
| Ac-TKCFQWQRNMRKVR-NH2 [Peptide 51] | 10 | 10 | 10 | 10 | + | + (+ = 100/99% of the bacteria are killed) | + (+ = 100/99% of the bacteria are killed) | + (+ = 99% of the bacteria are killed) | + (+ = 99% of the bacteria are killed) | + (+ = 99% of the bacteria are killed) | + (+ = 99% of the bacteria are killed) | + (+ = 99% of the bacteria are killed) |  |  |  |  |  |  |  |  |
| EATKCFQWQRNMRKVR [Peptide 64] | 10 | 25 | 10 | 10 | + | + (+ = 100/99% of the bacteria are killed) | − (− = less than 100/99% of the bacteria are killed) | + (+ = 99% of the bacteria are killed) | + (+ = 99% of the bacteria are killed) | + (+ = 99% of the bacteria are killed) | − (− = less than 99% of the bacteria are killed) | − (− = less than 99% of the bacteria are killed) |  |  |  |  |  |  |  |  |
| FQWQRNMRKVR [Peptide 44] | 10 | 10 | 10 | 10 | − | − (− = less than 100/99% of the bacteria are killed) | − (− = less than 100/99% of the bacteria are killed) | + (+ = 99% of the bacteria are killed) | + (+ = 99% of the bacteria are killed) | + (+ = 99% of the bacteria are killed) | − (− = less than 99% of the bacteria are killed) | − (− = less than 99% of the bacteria are killed) |  |  |  |  |  |  |  |  |
| KCFQWQRNMRKVRGPPVSCI [Morinaga 24] (KCFQWQRNMRKVRGPPVSCI; also: cyclic peptide, ring type not given here) [reference compound] |  |  |  |  |  |  |  |  |  |  |  |  | 12.5 | 12.5 | 25 | 6.2 |  |  |  |  |
| KCFQWQRNMRKVRGPPVSCI [Morinaga 25] (KCFQWQRNMRKVRGPPVSCI) [reference compound] |  |  |  |  |  |  |  |  |  |  |  |  | 6.2 | 6.2 | 12.5 | 3.1 |  |  |  |  |
| Peptide 2: SEQ. ID. NO. 1 with X1 E, X2 A, X5 C, X7 Q, X11 N, X17-25 G-P-P-V-S-C-I-K-R; cysteines acetamidomethyl protected (Ac-EATKC(Acm)FQWQRNMRKVRGPPVSC(Acm)IKR-NH2) |  |  |  |  |  |  |  |  |  |  |  |  | 6.2 | 6.2 | 25 | 6.2 |  |  |  |  |
| Peptide 57: 14 amino acids, modified positions 18-31 of human lactoferrin; sequence only in sequence listing (TKKFQWQRNMRKVR) |  | 25 | 10 |  | + | + (+ = 100/99% of the bacteria are killed) | + (+ = 100/99% of the bacteria are killed) | + (+ = 99% of the bacteria are killed) | + (+ = 99% of the bacteria are killed) | + (+ = 99% of the bacteria are killed) | + (+ = 99% of the bacteria are killed) | + (+ = 99% of the bacteria are killed) |  |  |  |  | 10 | 10 |  |  |
| QPEATKCFQWQRNMRKVR [Peptide 33] | 10 | 100 | 25 | 10 | − | − (− = less than 100/99% of the bacteria are killed) | − (− = less than 100/99% of the bacteria are killed) | + (+ = 99% of the bacteria are killed) | + (+ = 99% of the bacteria are killed) | + (+ = 99% of the bacteria are killed) | − (− = less than 99% of the bacteria are killed) | − (− = less than 99% of the bacteria are killed) |  |  |  |  |  |  |  |  |
| QWQRNMRKVR [Peptide 40] | 25 | 25 | >25 | >25 | − | − (− = less than 100/99% of the bacteria are killed) | − (− = less than 100/99% of the bacteria are killed) | − (− = less than 99% of the bacteria are killed) | + (+ = 99% of the bacteria are killed) | − (− = less than 99% of the bacteria are killed) | − (− = less than 99% of the bacteria are killed) | − (− = less than 99% of the bacteria are killed) |  |  |  |  |  |  |  |  |
| SEQ. ID. NO. 55: modification of SEQ. ID. NO. 7 wherein the Asp in position 9 is substituted with a Glu (TKAFKWQREMRKVR; lactam 5-9) |  |  |  |  |  |  |  |  |  |  |  |  |  |  |  |  |  |  | 5 | 5 |
| TKCFQWQRNMRKVR [Peptide 50] | 10 | 10 | 10 | 10 | + | + (+ = 100/99% of the bacteria are killed) | + (+ = 100/99% of the bacteria are killed) | + (+ = 99% of the bacteria are killed) | + (+ = 99% of the bacteria are killed) | + (+ = 99% of the bacteria are killed) | + (+ = 99% of the bacteria are killed) | + (+ = 99% of the bacteria are killed) |  |  |  |  |  |  |  |  |
